Data published in PubChem BioAssay (NCI).
Several values for one entry are separate records, joined by “and”; a condition that tells them apart may be missing. Equal values may be shown once.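 Cultured in 96-well plates, cells were exposed to test compound for 48 hours across five concentrations. At the GI50, growth is halved. TGI is the concentration that stops growth completely.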

Legend:
Assay in all cases: inhibition of tumour cell growth, NCI panel, 48 h
KM12 colon = system: KM12 colon
CCRF-CEM leukemia = system: CCRF-CEM leukemia
SK-MEL-28 melanoma = system: SK-MEL-28 melanoma
TK-10 renal = system: TK-10 renal
SR leukemia = system: SR leukemia
LOX IMVI melanoma = system: LOX IMVI melanoma
HCT-116 colon = system: HCT-116 colon
OVCAR-8 ovarian = system: OVCAR-8 ovarian
SK-MEL-5 melanoma = system: SK-MEL-5 melanoma
UACC-62 melanoma = system: UACC-62 melanoma

SMILES	GI50 (KM12 colon)	TGI (KM12 colon)	GI50 (CCRF-CEM leukemia)	TGI (CCRF-CEM leukemia) [µM]	GI50 (SK-MEL-28 melanoma)	GI50 (TK-10 renal)	GI50 (SR leukemia)	TGI (SR leukemia) [µM]	GI50 (LOX IMVI melanoma)	TGI (LOX IMVI melanoma) [µM]	GI50 (HCT-116 colon)	TGI (HCT-116 colon) [µM]	GI50 (OVCAR-8 ovarian)	GI50 (SK-MEL-5 melanoma)	TGI (SK-MEL-5 melanoma)	GI50 (UACC-62 melanoma)	TGI (UACC-62 melanoma)	TGI (SK-MEL-28 melanoma) [µM]	TGI (TK-10 renal) [µM]	TGI (OVCAR-8 ovarian) [µM]
Cn1c(=O)n(-c2ccc(C(C)(C)C#N)cc2)c2c3cc(-c4cnc5ccccc5c4)ccc3ncc21	0.0134 µM and 0.00683 µM and 0.0153 µM	1.28 µM and > 10 µM	< 0.01 µM and 0.00575 µM and < 0.0109 µM	> 100	0.016 µM and 0.0328 µM and < 0.0123 µM	0.0102 µM and 0.00652 µM and 0.0126 µM	0.0386 µM and 0.00551 µM and < 0.0137 µM	> 100	< 0.01 µM and 0.00522 µM	> 100	0.0312 µM and 0.00938 µM and 0.0298 µM	> 100	0.0101 µM and 0.00582 µM and < 0.01 µM	0.0154 µM and 0.00646 µM and < 0.0152 µM	0.0911 µM and 0.106 µM and 0.0859 µM	0.0112 µM and 0.00494 µM and < 0.01 µM	0.0809 µM and 0.0513 µM and 0.0445 µM	–	–	–
c1ccc2c(c1)nc(NCCN1CCNCC1)c1c3ccccc3[nH]c21	0.369 µM	2.56 µM	0.086 µM	1.82	1.37 µM	1.34 µM	0.226 µM	1.33	0.295 µM	1.03	0.165 µM	1.42	0.111 µM	1.27 µM	2.61 µM	1.76 µM	3.69 µM	2.8	6.91	0.883
COc1ccc(S(=O)(=O)N/N=C/C(=O)O)cc1	–	> 1170 µM	–	712	–	–	–	603	–	733	–	1030	–	–	894 µM	–	984 µM	> 1250	> 1250	1100
COc1ccc2c(c1O)[C@@]13C=C(O)C(=O)C=C1[C@@H](C2)N(C)CC3	–	> 100 µM	–	> 100	–	–	–	> 100	–	> 100	–	> 100	–	–	> 100 µM	–	> 100 µM	> 100	> 100	> 100
COc1cc[nH]c1/C=C1\C(=O)Nc2ccc(F)c(C#CC3(O)CCOCC3)c21	0.0104 µM	1.92 µM	0.713 µM	1.86	0.677 µM	0.507 µM	0.447 µM	2.75	0.537 µM	1.77	0.538 µM	> 25	0.867 µM	0.497 µM	1.19 µM	0.375 µM	0.929 µM	3.11	2.92	> 25
CC[C@]12C=CCN3CC[C@]4(C(=C(C(=O)OC)C1)Nc1cc(O)ccc14)[C@@H]32	13.1 µM	30.6 µM	25.3 µM	> 100	17 µM	30.8 µM	12.3 µM	> 100	13.6 µM	26.7	16.2 µM	34.3	24.5 µM	14.8 µM	28.3 µM	7.18 µM	22.3 µM	42.5	99.7	68.8
COc1cc(C2C3=C(COC3=O)N(CCO)c3cc4c(cc32)CCC4)cc(OC)c1O (configuration not stated)	0.121 µM	5.52 µM	1.21 µM	> 32.5	0.213 µM	> 32.5 µM	0.192 µM	> 32.5	0.187 µM	> 32.5	0.138 µM	> 12.5	0.365 µM	0.102 µM	> 11 µM	0.134 µM	> 32.5 µM	> 32.5	> 32.5	> 32.5
NC(Cc1nn[nH]n1)C(=O)O (configuration not stated)	–	> 100 µM	–	> 100	–	–	–	> 100	–	> 100	–	> 100	–	–	> 100 µM	–	> 100 µM	> 100	> 100	> 100
O=C1c2ccccc2-c2cc3ccccc3c(=O)n21	–	> 100 µM	–	> 100	–	–	–	> 100	–	> 100	–	> 100	–	–	> 100 µM	–	> 100 µM	> 100	> 100	> 100
Cc1cc(CS(=O)(=O)/C=C/c2ccccc2[N+](=O)[O-])c(CS(=O)(=O)/C=C/c2ccccc2[N+](=O)[O-])cc1C	–	> 100 µM	–	> 46.4	–	–	–	> 100	–	> 100	–	> 100	–	–	> 100 µM	–	> 100 µM	> 100	> 81.8	> 100
C/C(=C(/c1ccc(O)cc1)c1ccc(OCCN2CCCC2)cc1)c1ccccc1	3.51 µM	13.2 µM	3.2 µM	9.85	1.65 µM	4.61 µM	1.93 µM	5.75	1.72 µM	3.29	2.92 µM	10.1	5.73 µM	1.72 µM	3.1 µM	2.26 µM	4.72 µM	3.41	16.4	23.1
CCC1OCCN1C(C)C (configuration not stated)	–	> 100 µM	–	> 100	–	–	–	> 100	–	> 100	–	> 100	–	–	> 100 µM	–	> 100 µM	92.2	> 100	> 100
CC1(CC(=O)O)OC2CCCCCC2O1 (configuration not stated) (tested in a mixture with another compound)	–	> 100 µM	–	84.5	–	–	–	> 100	–	> 100	–	> 100	–	–	> 100 µM	–	> 100 µM	> 100	> 100	> 100
